According to PMC8145938, “Triphenilphosphonium Analogs of Chloramphenicol as Dual-Acting Antimicrobial and Antiproliferating Agents” (Antibiotics, 2021):
Values after ≈ are worked out from the molar mass of the structure shown. Read-outs that look alike come from different tables or passages of the source.

Experiments:
[1] = test system: A549; assay: MTT assay growth inhibition; format: cell-based, human; details: for selectivity of action for A549 and noncancerous VA13 cell lines: A549 vs VA13; for GI50: Homo sapiens, A549, MTT, 72 h, read-out: 50% growth inhibition concentration (GI50)
Method: (§1) The cytotoxicity of the tested substances was tested using the MTT (3-(4,5-dimethylthiazol-2-yl)-2,5-diphenyltetrazolium bromide) assay, with some modifications, and 2500 cells per well for the MCF7, HEK293T, and A549 cell lines or 4000 cells per well for the VA-13 cell line were plated in 135 µL of DMEM-F12 media (Gibco, Waltham, MA, USA) in a 96-well plate and incubated in the 5% CO2 incubator for first 16 h, without treatment. Then, 15 µL of media-DMSO solutions of the tested substances was added to the cells (the final DMSO concentrations in the media were 1% or less) and treated cells for 72 h with 25 nM–50 µM (eight dilutions) of our substances (triplicate each), and serial DMSO dilutions and doxorubicin were used as controls. The MTT reagent (Paneco LLC, Moscow, Russia) was then added to cells to a final concentration of 0.5 g/L (10× stock solution in PBS was used) and incubated for 2.5 h at 37 °C in the incubator under an atmosphere of 5% CO2. The MTT solution was then discarded, and 140 µL of DMSO (PharmaMed LLC, Krasnodarsky Krai, Russia) was added. The plates were swayed on a shaker (60 rpm) to dissolve the formazan. The absorbance was measured using a microplate reader (VICTOR X5 Light Plate Reader, PerkinElmer, Waltham, MA, USA) at a wavelength of 565 nm (in order to measure formazan concentration). The results were used to construct a dose-response graph and to estimate the CC50 value.

[2] = test system: E. coli 70S ribosomes; assay: competition-binding assay with BODIPY-ERY (fluorescence anisotropy); details: for Kd: displacement of BODIPY-ERY from E. coli 70S ribosomes, read-out: apparent dissociation constant (KDapp)
Text: All new semi-synthetic CAM-Cn-TPP compounds were expected to bind and act on bacterial ribosomes by inhibiting protein synthesis, which is similar to CAM-C4-TPP and the PTC-targeting parent antibiotic CHL. To assess the affinity of CAM-C10-TPP and CAM-C14-TPP for the bacterial 70S ribosome (Figure 2A), a competition-binding assay exploiting BODIPY-labeled erythromycin (BODIPY-ERY) was used. […] It is likely that in the case of CAM-C14-TPP, the linker may be too long, preventing the optimal positioning of the TPP moiety in the NPET. Thus, CAM-C10-TPP and CAM-C14-TPP bind to the bacterial ribosome. However, their affinity strongly depends on the length of the linker connecting the two […]. Among the three CAM-Cn-TPPs, the C10-linker was optimal in terms of its ability to bind to the 70S ribosome.
The binding affinity of CAM-Cn-TPP to E. coli ribosomes was analyzed by a competition-binding assay using the fluorescently-labeled BODIPY-ERY, as described before. BODIPY-Ery (16 nM) was incubated with the ribosomes (50 nM) in the buffer containing 20 mM HEPES-KOH (pH 7.5), 50 mM NH4Cl, 10 mM Mg(CH3COO)2, 4 mM mercaptoethanol, and 0.05% Tween-20 for 30 min at 25 °C. Solutions of CHL, CAM-Cn-TPP, and CnTPP in different concentration ranges were added to the formed complex. The mixture was incubated for 2 h, until an equilibrium was reached, and the values of fluorescence anisotropy were measured by VICTOR X5 Multilabel Plate Reader (Perkin Elmer, Waltham, MA, USA). The dissociation constants were calculated based on the assumption of the equilibrium competitive binding of two ligands at a single binding site, as described in [70].

[3] = test system: Staphylococcus aureus; assay: MIC determination, broth microdilution; format: cell-based
Text: (§2) Standard laboratory strains of Bacillus subtilis subs. subtilis Cohn 1872, stains BR151, and 168, Staphylococcus aureus subsp. aureus Rosenbach 1884 strains JCM 2151 and entry MC#144 (from the Microorganisms Collection of the Moscow State University), Listeria monocytogenes Pirie 1940, Mycobacterium smegmatis Lehmann and Neumann 1899 (MC#377), and Escherichia coli Castellani and Chalmers 1919, strain JW5503 (with the deletion of tolC gene), which are resistant to the chloramphenicol strains, J53rif, C600rif/pIB55-1, C600rif/pIP162-1, and C600recA naI, were used.
(§3) S. aureus was grown in Bacto Tryptic Soy Broth, L. monocytogenes in Brain Heart Infusion Broth, and E. coli in LB. Bacterial cells were grown at 30 °C or 37 °C in the appropriate medium at a 140 rpm shaking frequency.
(§4) The MICs for CAM-Cn-TPP and Cn-TPP were determined by Mueller-Hinton broth microdilution, as recommended by CLSI in the Methods for Dilution Antimicrobial Susceptibility Tests for Bacteria that Grow Aerobically, Approved Standard, 9th ed., CLSI document M07-A9, using in-house-prepared panels. The compounds were diluted in a 96-well microtiter plate to final concentrations ranging from 0.5 to 360 μM in a 250-µL aliquot of the bacterial suspension, followed by incubation at 37 °C or 30 °C for 18 h. […] The bacterial growth was observed visually alongside OD measurements. The experiments were carried out in triplicate.

[4] = test system: Listeria monocytogenes; assay: MIC determination, broth microdilution; format: cell-based
Text: as §2, §3, §4

[5] = test system: VA13; assay: MTT assay growth inhibition; format: cell-based; details: VA-13, 72 h, read-out: 50% growth inhibition concentration (GI50)
Method: as §1

[6] = test system: MCF7; assay: MTT assay growth inhibition; format: cell-based; details: Homo sapiens, 72 h, read-out: 50% growth inhibition concentration (GI50)
Method: as §1

[7] = test system: HEK293T; assay: MTT assay growth inhibition; format: cell-based; details: Homo sapiens, HEK-293T, 72 h, read-out: 50% growth inhibition concentration (GI50)
Method: as §1

[8] = test system: B. subtilis pHT01-cat; assay: MIC determination, broth microdilution; format: cell-based; details: Bacillus subtilis, PHT01CAT
Method: (§5) E. coli ∆tolC CHL-resistant strain harboring plasmid encoding for chloramphenicol acetyltransferase (cat) (pCA24N-LacZ) and the control E. coli ∆tolC strain was used to evaluate the inhibitory effect of the compounds. CHL-resistant strains of B. subtilis pHT01-cat and B. subtilis pHT01-cfr were prepared by means of a transformation of a B. subtilis 168 strain with plasmids harboring the cat and cfr genes (chloramphenicol-florfenicol resistance) gene. The cfr gene encodes for the methyltransferase, which catalyzes the methylation of […] in the 23S rRNA and causes resistance to a variety of ribosome-targeting antibiotics that bind in the A site of the bacterial ribosome.
(§6) A standard laboratory strain of B. subtilis 168 was used to obtain the CHL-resistant strains, B. subtilis pHT01-CAT and B. subtilis pHT01-cfr, by means of transformation with the corresponding plasmids. Competent cell preparation and transformation procedures were conducted, as reported in [74, 75]. The desired colonies were selected at 10 µg/mL of CHL for B. subtilis pHT01 and 5 µg/mL or 3.2 µg/mL of CHL for B. subtilis pHT01-cfr.
as §4

[9] = test system: B. subtilis pHT01-cfr; assay: MIC determination, broth microdilution; format: cell-based; details: Bacillus subtilis, PHT01CFR
Method: as §5, §6, §4

[10] = Table 1, double-dilution method, read-out: MIC

Row | SMILES | selectivity of action for A549 and noncancerous VA13 cell lines [1] | GI50 [1] [nM] | Kd [2] [nM] | greater affinity to the ribosome compared to CAM-C4-TPP ([2]; ratio of KDapp) | greater affinity to the ribosome compared to the parent CHL ([2]; ratio of KDapp) | MIC [3] [µM] | MIC [4] [µM] | GI50 [5] [nM] | GI50 [6] [nM] | GI50 [7] [nM] | MIC [8] [µM] | MIC [9] [µM] | lower affinity to the 70S ribosome compared to CHL ([2]; ratio of KDapp) | lower affinity to the 70S ribosome compared to other CAM-Cn-TPPs ([2]; ratio of KDapp) | MIC [3, 10] [µM] | MIC [4, 10] [µM]
1 | O=C(CCCCCCCCCC[P+](c1ccccc1)(c1ccccc1)c1ccccc1)N[C@H](CO)[C@H](O)c1ccc([N+](=O)[O-])cc1 [CAM-C10-TPP, (N-{[(1R,2R)-1,3-dihydroxy-1-(4-nitrophenyl)propan-2-yl]amino}-11-oxoundecyl)(triphenyl)phosphonium bromide] | approximately 4 times | 700 ± 100 | 400 ± 40 | ~ 1.5 fold | ~ 7 fold | 5 | 6 | 2800 ± 500 | 1000 ± 100 | 620 ± 40 | 6 | 6 | – | – | – | –
2 | O=C(CCCCCCCCCC[P+](c1ccccc1)(c1ccccc1)c1ccccc1)NCCCC(=O)N[C@H](CO)[C@H](O)c1ccc([N+](=O)[O-])cc1 [CAM-C14-TPP, N-[(1R,2R)-1,3-dihydroxy-1-(4-nitrophenyl)propan-2-yl]-4-(triphenyl)phosphoniumundecanamidobutamide bromide] | ~2 times | 2900 ± 400 | 36000 ± 9000 | – | – | 12 | 17 | 5200 ± 900 | 5800 ± 800 | 3600 ± 500 | 12.5 | 6 | ~ 13 fold | 60-90 fold | – | –
3 | O=C(N[C@H](CO)[C@H](O)c1ccc([N+](=O)[O-])cc1)C(Cl)Cl [CHL, chloramphenicol] | – | > 50000 | 2800 ± 400 | – | – | – | – | > 50000 | > 50000 | > 50000 | 180 (≈ 58.2 µg/mL) | 90 (≈ 29.1 µg/mL) | – | – | 60 (≈ 19.4 µg/mL) | 25 (≈ 8.08 µg/mL)
